From patent US20090203692A1, “NOVEL CHEMICAL COMPOUNDS” (SMITHKLINE BEECHAM CORPORATION, priority 2005, published 2009)

Target: T1, hYAK3 (Homo sapiens, UniProt O43781)
T1 construct: GST (N); His6 (C); made in house; host or cells: baculovirus expression system in Sf9 cells
T1 sequence (O43781 142-526): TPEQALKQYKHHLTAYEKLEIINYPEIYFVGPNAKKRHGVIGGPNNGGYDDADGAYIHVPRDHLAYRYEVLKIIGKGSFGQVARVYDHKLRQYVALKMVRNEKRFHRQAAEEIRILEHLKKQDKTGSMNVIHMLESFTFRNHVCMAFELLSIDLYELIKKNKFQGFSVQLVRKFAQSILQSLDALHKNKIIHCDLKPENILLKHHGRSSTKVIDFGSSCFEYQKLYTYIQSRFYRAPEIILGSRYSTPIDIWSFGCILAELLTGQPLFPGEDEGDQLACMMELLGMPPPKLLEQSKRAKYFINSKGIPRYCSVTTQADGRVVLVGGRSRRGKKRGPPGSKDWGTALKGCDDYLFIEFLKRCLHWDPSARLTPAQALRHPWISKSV
Assay: YAK3 Scintillation Proximity Assay using Ser164 of myelin basic protein as the phosphoacceptor (kinase assay of purified hYAK3)
Type: biochemical
Settings: purified GST-hYak3-His6 4 nM; 1 μM ATP; 4 μM Ser164 peptide; 2 hours at room temperature; pIC50=-Log10(K)
Experimental: Substrate phosphorylation assays were carried out as follows:
YAK3 Scintillation Proximity Assays Using Ser164 of Myelin Basic Protein as the Phosphoacceptor
The source of Ser164 substrate peptide The biotinylated Ser164, S164A peptide(LGGRDSRAGS*PMARRKK-ahx-Biotin-Amide), sequence derived from the C-terminus of bovine myelin basic protein (MBP) with […] substituted as Ala 162, was purchased from California Peptide Research Inc. (Napa, Calif.), and its purity was determined by HPLC. Phosphorylation occurs at position 164 (marked S* above). The calculated molecular mass of the peptide is 2166 dalton. Solid sample was dissolved at 10 mM in DMSO, aliquoted, and stored at −20 C until use. […]
Kinase assay of purified hYAK3: Assays were performed in 96 well (Costar, Catalog No. 3789) or 384 well plates (Costar, Catalog No. 3705). […] Compounds, titrated in DMSO, were evaluated at concentrations ranging from 50 μM to 0.2 nM. […]
The data for compound dose responses were plotted as % Inhibition, calculated with the data reduction formula 100*(1−[(U1−C2)/(C1−C2)]), versus concentration of compound, where U is the unknown value, C1 is the average control value obtained for DMSO, and C2 is the average control value obtained for 0.05M EDTA. […] The results for each compound were recorded as pIC50 calculated as follows: pIC50=−Log 10(K).

IC50: 1.58 nM
SMILES: O=C1N=C(Nc2cccnc2Cl)S/C1=C\c1ccc2ncccc2c1 [Example 1, (5Z)-2-[(2-Chloro-3-pyridinyl)amino]-5-(6-quinolinylmethylidene)-1,3-thiazol-4(5H)-one]
